Experiments:
Assay in all cases: Kinase selectivity profiling at a single concentration (Carna Biosciences)
Type in all cases: biochemical
[1] = molecular target: T1, panel of 255 (vepafestinib) or 256 (all other inhibitors) recombinant kinases (Homo sapiens, UniProt P12931); conditions: 17 nM
T1 construct: purchased Carna Biosciences

[2] = molecular target: T2, panel of 255 (vepafestinib) or 256 (all other inhibitors) recombinant kinases (Homo sapiens, UniProt O60674); conditions: 17 nM
T2 construct: purchased Carna Biosciences
T2 sequence (O60674 whole entry): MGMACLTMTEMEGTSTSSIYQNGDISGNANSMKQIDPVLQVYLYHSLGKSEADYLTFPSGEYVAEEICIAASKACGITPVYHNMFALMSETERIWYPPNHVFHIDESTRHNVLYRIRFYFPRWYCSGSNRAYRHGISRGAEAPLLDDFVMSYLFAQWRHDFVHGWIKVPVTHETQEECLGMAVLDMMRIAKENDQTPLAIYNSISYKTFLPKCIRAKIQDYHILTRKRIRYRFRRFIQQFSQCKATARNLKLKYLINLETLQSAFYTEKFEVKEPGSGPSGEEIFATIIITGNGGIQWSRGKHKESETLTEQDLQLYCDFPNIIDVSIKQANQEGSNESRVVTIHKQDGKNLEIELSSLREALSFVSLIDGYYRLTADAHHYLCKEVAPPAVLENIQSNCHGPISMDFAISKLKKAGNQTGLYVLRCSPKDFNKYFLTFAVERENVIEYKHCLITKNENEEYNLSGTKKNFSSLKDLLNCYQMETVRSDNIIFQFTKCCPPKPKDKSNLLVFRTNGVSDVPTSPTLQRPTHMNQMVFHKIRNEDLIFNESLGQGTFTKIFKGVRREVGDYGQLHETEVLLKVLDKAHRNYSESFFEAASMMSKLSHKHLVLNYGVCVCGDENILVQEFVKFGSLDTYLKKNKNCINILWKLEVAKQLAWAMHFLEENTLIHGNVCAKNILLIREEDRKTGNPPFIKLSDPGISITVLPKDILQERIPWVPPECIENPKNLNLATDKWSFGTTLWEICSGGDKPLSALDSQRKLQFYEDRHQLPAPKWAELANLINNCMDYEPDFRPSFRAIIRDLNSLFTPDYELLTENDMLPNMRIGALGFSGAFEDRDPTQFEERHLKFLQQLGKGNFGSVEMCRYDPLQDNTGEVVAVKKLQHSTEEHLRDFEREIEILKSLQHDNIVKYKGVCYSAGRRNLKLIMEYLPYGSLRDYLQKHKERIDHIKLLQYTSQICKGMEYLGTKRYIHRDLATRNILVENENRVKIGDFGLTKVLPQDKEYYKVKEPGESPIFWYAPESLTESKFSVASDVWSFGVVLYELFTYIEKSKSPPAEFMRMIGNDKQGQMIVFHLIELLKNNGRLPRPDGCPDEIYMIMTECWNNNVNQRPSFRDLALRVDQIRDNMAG

[3] = molecular target: T3, panel of 255 (vepafestinib) or 256 (all other inhibitors) recombinant kinases (Homo sapiens, UniProt P17948); conditions: 22 nM
T3 construct: purchased Carna Biosciences
T3 sequence (P17948 27-1338): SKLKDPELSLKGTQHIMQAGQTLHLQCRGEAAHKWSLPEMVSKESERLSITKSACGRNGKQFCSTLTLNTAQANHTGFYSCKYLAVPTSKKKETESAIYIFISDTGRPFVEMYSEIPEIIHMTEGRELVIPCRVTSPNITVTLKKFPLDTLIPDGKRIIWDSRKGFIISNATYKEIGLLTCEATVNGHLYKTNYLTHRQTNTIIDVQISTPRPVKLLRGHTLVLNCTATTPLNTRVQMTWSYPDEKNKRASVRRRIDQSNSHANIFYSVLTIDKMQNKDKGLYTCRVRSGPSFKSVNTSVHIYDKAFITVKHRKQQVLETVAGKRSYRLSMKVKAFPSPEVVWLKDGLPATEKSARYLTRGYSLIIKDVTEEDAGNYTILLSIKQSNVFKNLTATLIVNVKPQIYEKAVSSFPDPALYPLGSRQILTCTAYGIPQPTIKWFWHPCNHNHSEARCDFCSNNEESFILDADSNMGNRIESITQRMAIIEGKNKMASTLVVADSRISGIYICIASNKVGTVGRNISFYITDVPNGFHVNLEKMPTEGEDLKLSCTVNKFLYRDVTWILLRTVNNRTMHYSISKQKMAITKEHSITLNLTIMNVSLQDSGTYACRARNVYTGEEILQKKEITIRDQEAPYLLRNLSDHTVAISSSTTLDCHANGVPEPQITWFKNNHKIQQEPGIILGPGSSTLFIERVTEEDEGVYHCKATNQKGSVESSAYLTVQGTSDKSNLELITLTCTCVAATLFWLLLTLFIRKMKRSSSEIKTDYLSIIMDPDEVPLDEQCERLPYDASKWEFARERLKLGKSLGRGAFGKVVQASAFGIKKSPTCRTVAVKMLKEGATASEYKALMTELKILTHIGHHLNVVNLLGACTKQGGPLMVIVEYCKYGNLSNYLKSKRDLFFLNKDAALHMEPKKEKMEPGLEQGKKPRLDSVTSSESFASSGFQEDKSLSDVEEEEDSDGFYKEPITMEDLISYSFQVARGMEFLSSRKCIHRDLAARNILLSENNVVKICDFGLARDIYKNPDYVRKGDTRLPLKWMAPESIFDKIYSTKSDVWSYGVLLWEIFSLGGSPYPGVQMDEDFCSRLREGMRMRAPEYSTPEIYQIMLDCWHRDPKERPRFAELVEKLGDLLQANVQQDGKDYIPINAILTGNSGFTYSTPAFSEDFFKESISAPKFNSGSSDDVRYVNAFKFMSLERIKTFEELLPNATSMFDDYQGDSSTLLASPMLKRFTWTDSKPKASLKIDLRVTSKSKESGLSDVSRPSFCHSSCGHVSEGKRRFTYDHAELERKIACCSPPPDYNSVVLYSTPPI

T1 sequence (P12931 whole entry): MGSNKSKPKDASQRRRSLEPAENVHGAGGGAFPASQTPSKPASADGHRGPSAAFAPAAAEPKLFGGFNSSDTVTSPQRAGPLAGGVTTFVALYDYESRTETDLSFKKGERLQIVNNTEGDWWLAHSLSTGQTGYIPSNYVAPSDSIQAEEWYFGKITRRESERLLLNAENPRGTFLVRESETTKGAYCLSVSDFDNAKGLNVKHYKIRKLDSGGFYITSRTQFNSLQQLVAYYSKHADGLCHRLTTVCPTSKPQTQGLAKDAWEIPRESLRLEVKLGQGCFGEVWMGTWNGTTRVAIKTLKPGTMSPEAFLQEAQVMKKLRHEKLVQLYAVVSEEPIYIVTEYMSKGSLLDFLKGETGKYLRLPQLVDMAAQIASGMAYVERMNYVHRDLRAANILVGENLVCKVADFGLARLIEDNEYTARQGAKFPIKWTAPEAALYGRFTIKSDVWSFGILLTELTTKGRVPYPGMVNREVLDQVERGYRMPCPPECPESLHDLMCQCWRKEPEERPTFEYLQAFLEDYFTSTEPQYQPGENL

SMILES	% Inhibiton SRC [1] [%]	% Inhibiton JAK2 [2] [%]	% Inhibiton FLT1 [3] [%]
CO[C@]1(C(=O)N[C@@H](C)c2ccc(-n3cc(F)cn3)nc2)CC[C@H](c2nc(C)cc(Nc3cc(C)[nH]n3)n2)CC1 [Pralsetinib]	34.5	101.5	
COc1ccc(CN2C3CC2CN(c2ccc(-c4cc(OCC(C)(C)O)cn5ncc(C#N)c45)cn2)C3)cn1 [Selpercatinib]			45.4
